Laboratory results published in article PMC11261779, “Structural studies of WDR5 in complex with MBD3C WIN motif reveal a unique binding mode” (The Journal of Biological Chemistry, 2024).
No end group written: not given here.

Columns and labels:
WDR5 [1] = details: cited from earlier work
Description: (§1) WDR5, a well-established core scaffolding protein found in histone methyltransferase complexes MLL1-4 and SET1A/B ([1], [2]), was initially characterized as an epigenetic histone “writer” to recognize histone H3 lysine 4 (H3K4) and is essential for H3K4 di- and tri-methylation (H3K4me2 and H3K4me3) to activate gene transcription ([1], [3], [4], [5], [6]). Moreover, the interaction between WDR5 and the H3 tail could be regulated by the methylation of H3 arginine 2 (H3R2) ([7], [8]). It is also present in the nonspecific lethal (NSL) complex of histone acetyltransferase, where it is responsible ...

[2] = system: patient-derived mouse models; details: cited from earlier work
Description: as §1

WDR5 [3] = molecular target: T1, WDR5 (Mus musculus, UniProt P61965); test: ITC of MBD3C peptides titrated into wild-type WDR5 (residues 24–334); details: MicroCal PEAQ-ITC, 20 °C, 20 mM Tris-HCl, 200 mM NaCl, pH 7.5, WDR5 WT 44.5 μM, peptide 0.5–1.0 mM, single binding site model, triplicate, N.D. = not detectable binding
T1 construct: to titrate the truncated WDR5 construct (residues 24–334); GST (N, cleaved yes); made in house; host or cells: Escherichia coli BL21 (DE3)
Description: To validate their findings and determine the dissociation constant (Kd) between WDR5 and MBD3C40-51 more accurately, we performed ITC experiments using a synthetic MBD3C peptide spanning 40 to 51 to titrate the truncated WDR5 construct (residues 24–334).
The DNA fragment encoding the mouse WDR5 seven tandem WD-40 repeats (residues 24–334) was amplified via PCR from the human brain and bone marrow cDNA library and cloned into the pGEX-4T1 vector modified with an N-terminal GST tag and a TEV cleavage site (ENLYFQ/GSHM) (where ‘/’ indicates the cleavage site). All WDR5 mutants were generated using a MutanBEST kit and subsequently confirmed through DNA sequencing. The proteins were expressed in Escherichia coli BL21 (DE3) cells (Novagen) that were cultured in Luria–Bertani medium at 37 °C. The recombinant proteins were induced by 0.2 mM isopropyl β-D-1-thiogalactopyranoside (IPTG) upon reaching an optical density at 600 nm (OD600 nm) 0.8, then transferred to 16 °C and incubated for 18 h. Cells were harvested by centrifugation and resuspended in Buffer A (20 mM Tris-HCl, 500 mM NaCl, pH 8.0), supplemented with DNAaseI (10U) and protein protease inhibitor (Roche, 1 tablet dissolved in 1 ml sterile water), and then lysed by a high-pressure cell homogenizer. The cell debris was removed by centrifugation, and the supernatant was subjected to a 6-h incubation at 4 °C with glutathione Sepharose resins (GE Healthcare) The resins bound by GST-tagged proteins were resuspended in 20 ml Buffer A. Then, the GST tag was removed through digestion with ∼1 mg TEV protease (purified in-house) at 4 °C overnight. […]
(§2) ITC assays were performed on a Microcal PEAQ-ITC instrument (Malvern Panalytical) at 20 °C. Proteins were quantified by absorbance at 280 nm and diluted to 44.5 μM with Buffer D. The peptides were adjusted to 0.5 to 1.0 mM with the same buffer. […]

WDR5^D107R = molecular target: T2, WDR5^D107R (Mus musculus, UniProt P61965, D107R); test: ITC of MBD3C peptide titrated into WDR5 D107R mutant; details: 20 °C, 200 mM NaCl, pH 7.5, WDR5 D107R, N.D. = not detectable binding
T2 construct: the mouse WDR5 seven tandem WD-40 repeats (residues 24–334); GST (N, cleaved yes); made in house; host or cells: Escherichia coli BL21 (DE3)
Description: To validate the importance of the aforementioned residues in the interactions between MBD3C and WDR5, we conducted mutations on Arg43, Arg45, and Phe47 residues within MBD3C and the corresponding residues within WDR5. […] In addition, MBD3C carrying R43K mutation weakens the interaction with WDR5 by ∼9.1-fold (Figs. 2D, S2, and Table 2). […] The Arg-Asp specific interaction was also observed in a previously determined WDR5-KANSL1 complex, thereby contributing to the high binding affinity of KANSL1 for WDR5 ([9]). […] In comparison to the wild-type MBD3C, the dissociation constants were approximately 4-fold and 6.8-fold higher when Phe47 was mutated to alanine and histidine (Figs. 2D, S2, and Table 2), respectively.
The DNA fragment encoding the mouse WDR5 seven tandem WD-40 repeats (residues 24–334) was amplified via PCR from the human brain and bone marrow cDNA library and cloned into the pGEX-4T1 vector modified with an N-terminal GST tag and a TEV cleavage site (ENLYFQ/GSHM) (where ‘/’ indicates the cleavage site). All WDR5 mutants were generated using a MutanBEST kit and subsequently confirmed through DNA sequencing. […]
as §2

Row | Kd (WDR5 [3]) | Compound | also measured
1 | no binding was observed | GAAECRVFSPQG [MBD3C^R43E, MBD3C 40–51 peptide with R43E mutation] | –
2 | no binding was observed | GAADCRVFSPQG [MBD3C^R43D, MBD3C 40–51 peptide with R43D mutation] | –

The remaining lines, values behind:

Row | Compound | Kd (WDR5 [3]) | also measured
3 | Cc1ncsc1-c1ccc([C@H](C)NC(=O)[C@@H]2C[C@@H](O)CN2C(=O)[C@@H](NC(=O)CNC(=O)c2ccc(F)c(-c3ccc(N4C[C@@H](C)N(C)[C@@H](C)C4)c(NC(=O)c4c[nH]c(=O)cc4C(F)(F)F)c3)c2)C(C)(C)C)cc1 [MS67] | – | reduction of WDR5 levels in cells (WDR5 [1]): effectively reduced WDR5 levels; tumor growth [2]: suppressed tumor growth
4 | GAAACRVFSPQG [MBD3C^R43A, MBD3C 40–51 peptide with R43A mutation] | no binding was observed | –
5 | GAARCRVFSPQG [MBD3C] | – | Kd (WDR5^D107R): No interaction was observed
